Earlier results, collected in patent US20220265792A1, “METHODS FOR TREATING SOLID TUMORS” (Breakbio Corp., priority 2019, published 2022).

Legend:
Treg cells = details: 50 mg bid seven days, seven days off, another seven days of 50 mg bid
Renal Cell Carcinoma = details: human, in vivo
mCRC patients = details: 20 μg/Kg/day for 14 days, 1 to 3 cycles

CNC(=O)c1cc(Oc2ccc(NC(=O)Nc3ccc(Cl)c(C(F)(F)F)c3)c(F)c2)ccn1 [regorafenib]
clinical activity as single agent (lung, pancreatic): modest clinical activity

O=P1(N(CCCl)CCCl)NCCCO1 (racemic) [cyclophosphamide, (RS)—N,N-bis(2-chloroethyl)-1,3,2-oxazaphosphinan-2-amine 2-oxide]
effect on Treg cells (Treg cells): significantly depleted Treg cells

COc1cc2nccc(Oc3ccc(NC(=O)NC4CC4)c(Cl)c3)c2cc1C(N)=O [Lenvatinib]
clinical effect as monotherapy (colorectal cancer): modest clinical effect

Bevacizumab: monoclonal antibody binding circulating VEGF-A
intra-tumoral T-cell infiltration (Renal Cell Carcinoma): augmented intra-tumoral T-cell infiltration

B1: FLT3L: FMS-like tyrosine kinase 3 ligand, expands and mobilizes antigen presenting cells (protein, UniProt P49771 27-235, looked up)
Fms-related tyrosine kinase 3 …: TQDCSFQHSPISSDFAVKIRELSDYLLQDYPVTVASNLQDEELCGGLWRLVLAQRWMERLKTVAGSKMQGLLERVNTEIHFVTKCAFQPPPSCLRFVQTNISRLLQETSEQLVALKPWITRQNFSRCLELQCQPDSSTLPPPWSPRPLEATAPTAPQPPLLLLLLLPVGLLLLAAAWCLHWQRTRRRTPRPGEQVPPVPSPQDLLLVEH
number of APCs observed on the periphery of tumors (mCRC patients): significantly increased | percentage of APCs in PBMCs (mCRC patients; from 2.4%): 8.8% | number of leukocytes in peripheral blood (mCRC patients; from 5,900/mm^3): 11,200 /mm^3
